Source: patent US20020098520A1, “Cell tests and diagnostic index for alzheimer's disease” (priority 1993, published 2002)
Where two headings read alike, the source gives them in different places.

Assays:
[1] = system: 113 pS K^+ channel; test: Patch-clamp, cell-free patches: channel sensitivity to blockers; format: cell-based, human; conditions: outside-out patches, n=4 YC, n=3 AC
Procedure: (§1) Patch-clamp experiments were performed at room temperature (21-23° C.), following standard procedures set forth in Sakmann, B. and Neher, E. (1983) Single Channels Recordings (Plenum New York) and Kukuljan, M., et al. (1991) J. Membrane Biol. 119:187. Before recordings, […] culture medium was replaced with the following solution: 150 mM NaCl, 5 mM KCl, 2 mM CaCl2, 1 MM MgCl2, 10 mM HEPES […] pH=7.4. Pipettes were made from Blue Tip capillary tubes (I.D. 1.1-1.2 mm) using a BB-CH Mecanex puller, and then filled with a high potassium solution of 140 mM KCl, 2 mM CaCl2, 1 mM MgCl2, 10 mM HEPES (NaOH), pH=7.4. Pipette resistances were approximately 6 MΩ. Records were obtained using an Axopatch-1C amplifier (dc-10 kHz), stored on tape (Toshiba PCM-video recorder), and later transferred to a personal computer using an Axolab interface. Only recordings lasting for at least 3 minutes were considered for final analysis. The pClamp suite of programs was used for single-channel data acquisition and analysis. Amplifier, interface and software were obtained from Axon Instruments (Foster City, Calif.).

[2] = system: 166 pS K^+ channel; test: as above; format: cell-based, human; conditions: outside-out patches
Procedure: as §1

[3] = system: control fibroblasts; conditions: after 100 MM TEA addition, control cells n=4
Procedure: as §1

[4] = system: human skin fibroblasts (AD, AC, YC); conditions: for TEA Response Blind / TEA Response Non Blind: one cell line per table line
Procedure: Thirteen AD, ten AC, and six YC were used for the calcium-imaging experiments. Culture medium was replaced and washed three times with basal salt solution (“BSS”) consisting of 140 mM NaCl, 5 mM KCl2.5 mM CaCl2, 1.5 mm MgCl2, 5 mM glucose, 10 mM HEPES (NaOH), pH 7.4. Nominally Ca^2+ free BSS was prepared as BSS without adding CaCl2.
Fura-2 (acetyloxymethyl ester) (Fura-2AM) was purchased from Molecular Probes (Eugene, Oreg.) and stored as a 1 mM solution in dimethylsulfoxide. Fura-2AM was added to a final concentration of 2 µM and cells were incubated at room temperature (21°-23° C.) for 60 minutes. After incubation, cells were washed at least three times with BSS at room temperature before [Ca^2+]i determinations. Fluorescence was measured with a Hamamatsu ARGUS 50 imaging system (Hamamatsu Photonics, Japan) under the control of a personal computer (Hamamatsu imaging software package). Excitation at 340 nm and 380 nm was attenuated with neutral density filters. Fluorescent images were obtained with a 400 nm dichroic mirror and a 510 nm long-pass barrier filter. The objective lens was an X10 Nikon UV fluor. Fluorescence was measured within a uniformly illuminated fraction (¼) of the whole image.
The averaged Ca^2+ responses within 15×15 pixels in cytosolic and in nuclear cellular compartments obtained were quantified with ratios between emitted 510 nm fluorescence activated at 340 nm and fluorescence emitted at 510 nm with activation at 380 nm. These ratios were transformed to absolute values of [Ca^2+], after calibration based on the following equation:
R=Rmax+(Rmin−Rmax)/(1+([Ca^2+]i/Kd)^b).
Here R denotes fluorescence intensity illuminated by 340 nm divided by fluorescence intensity illuminated by 380 nm (F340/F380), and Rmax and Rmin are the values of R when the concentration of calcium is at a maximum and a minimum (i.e., the maximum and minimum value measurable by the machine under the measuring conditions), respectively. Kd is a dissociation constant of fura-2 for Ca^2+ and was determined as 240 nM. The value of b, which determined the degree of asymmetry, was 1.2. […] A response of 100% [Ca^+2]i elevation in at least 10% of cells in a line was, therefore, considered to be a conservative criterion for a positive response.

[5] = system: neuropathological non-AD fibroblasts
[6] = system: cultured fibroblasts (AD, controls, Es)
Procedure: Culture medium was removed and cells were washed at least three times with BSS (in mM: NaCl 140, KCl 5, CaCl2 2.5, MgCl2 1.5, HEPES 10, Glucose 5, pH=7.4). The fluorescent probe was loaded by incubating the cells in 2 μM (in BSS) fura 2-AM (Molecular Probes) for 60 min at room temperature. After loading, cells were washed thoroughly with BSS or BSS-0 Ca^2+ (in mM: NaCl 140, KCl 5, CaCl2 0.1, MgCl2 1.5, EGTA 1, HEPES 10, Glucose 5, pH=7.4). After washes, 1 ml of fresh solution was added for intracellular Ca^2+ baseline measurements. […] This solution was adjusted in order to introduce no osmolality changes. […] Bradykinin (Calbiochem) in BSS and BSS-0 Ca^2+ (1 ml) was also used at concentrations of 100 pM, 1 nm and 10 nM. Fluorescent images at 340 and 380 nm were acquired at a rate of 2.6/sec. for 200 sec, with a Hamamatsu Argus 50 system (Hamamatsu Photonics). The objective lens was a 10×Nikon fluor. Only the ¼ evenly illuminated area of the whole image was acquired. Individual ratio values were obtained off-line for all cells within the area of interest. Three to five dishes of a given cell line were used for each experimental condition. The number of cells measured per cell line was at least 50. In most cases, experiments for each cell line were repeated on at least one separate occasion (minimum one week interval).

[7] = 100 mM TEA, Age-Matched Control Fibroblasts
[8] = 100 mM TEA, Young Control Fibroblasts
[9] = Alzheimer's Patients, total 738 cells
[10] = Young Controls, total 532 cells

In the case of CC[N+](CC)(CC)CC [TEA, tetraethylammonium], the “sensitivity of the 113 pS channel to TEA” value [1] is reported as “sensitive”, the “sensitivity of the 166 pS channel to TEA” value [2] is reported as “only the 113 PS channel was sensitive” and the “depolarization of control cells” value [3] is reported as 13-20 mV. For the same compound, the “[Ca^2+]i elevation in response to TEA” value ([4]; 1 mM TEA, YC fibroblasts) was “elevated”, the “[Ca^2+]i elevation in response to TEA” value ([4]; 10 mM TEA, AC fibroblasts) was “elevated” and the “[Ca^2+]i elevation in response to TEA” value ([4]; 10 mM TEA, YC fibroblasts) was “elevated”. The “[Ca^2+]i elevation in response to TEA” value ([4]; 100 mM TEA, AC fibroblasts) was “elevated”, the “return of [Ca^2+]i to basal levels” value ([4]; 100 mM TEA, YC and AC fibroblasts) was 100 s and the “[Ca^2+]i elevation in response to TEA” value ([4]; 100 mM TEA, YC fibroblasts) was “elevated”. For the same compound, the “TEA Response Blind” value [4, 7] was “+”, the “TEA Response Non Blind” value [4, 7] was “+” and the “TEA Response Blind” value ([4]; 100 mM TEA, Alzheimer's Disease Fibroblasts) was “−”. For the same compound, the “TEA Response Non Blind” value ([4]; 100 mM TEA, Alzheimer's Disease Fibroblasts, criterion 100% elevation in at least 10% of cells) was “−”, the “TEA Response Blind” value [4, 8] was “+” and the “TEA Response Non Blind” value [4, 8] was “+”. The “Number of Cell Lines, Increase in [Ca^+2]i with 100 mM TEA” value (from here on “Number of Cell Lines, Increase”) ([4]; Aged Controls, total 10 cell lines) was 10, the “Number of Cells, Increase in [Ca^+2]i with 100 mM TEA” value (shortened to “Number of Cells, Increase in [Ca^+2]i”) ([4]; Aged Controls, total 417 cells) was 119 and the “Percent of cells, Increase in [Ca^+2]i with 100 mM TEA” value (shortened to “Percent of cells, Increase”) ([4]; Aged Controls, total 417 cells) was 29%. For the same compound, the “Number of Cell Lines, Increase” value ([4]; Alzheimer's Patients, total 13 cell lines) was 0, the “Number of Cells, Increase in [Ca^+2]i” value [4, 9] was 4 and the “Percent of cells, Increase” value [4, 9] was 0.5%. For the same compound, the “cells with a minimum of 100% [Ca^+2]i elevation” value ([4]; TEA application, every control cell line except one young control) was “at least 18 % of cells”, the “cells with 100% [Ca^+2]i elevation” value ([4]; TEA application, the only AD cell line with any response) was 4 % of cells and the “Number of Cell Lines, Increase” value ([4]; Young Controls, total 6 cell lines) was 5. The “Number of Cells, Increase in [Ca^+2]i” value [4, 10] was 145, the “Percent of cells, Increase” value [4, 10] was 27% and the TEA ([5]; Parkinson's donor cell line) was “+”. For the same compound, the TEA ([5]; Schizophrenia donors, one cell line per table line) was “+”, the TEA ([5]; Wernicke-Kors. donors, one cell line per table line) was “+” and the “% of responding cells in Es cell lines” value ([6]; 100 mM TEA, 3 Es cell lines) was “lower % of responding cells”. The “number of control cell lines with significant Ca^2+ elevations meeting CR” value ([6]; 100 mM TEA, 11 control cell lines) was 11, the “number of AD cell lines that did not meet CR” value ([6]; 100 mM TEA, 14 AD cell lines) was 10 and the “% of responding cells in AD cell lines compared to controls” value ([6]; TEA-induced responses) was “significantly reduced”.
